These results are taken from patent publication US8334382B2, “Substituted biaryl piperazinyl-pyridine analogues” (Neurogen Corporation, priority 2004, dated 2012).

This experiment concerns the target T1, human capsaicin receptor (Homo sapiens, UniProt Q8NER1).
T1 construct: expressed in transfected cells; host or cells: HEK293, stably transfected with pBK-CMV construct
Kind of experiment: Calcium mobilization assay, determination of antagonist activity. It counts as cell-based. Particulars: capsaicin at EC50; cells expressing human capsaicin receptor; Example 6. How it is done: A cDNA encoding full length human capsaicin receptor (SEQ ID NO:1, 2 or 3 of U.S. Pat. No. 6,482,611) is subcloned in the plasmid pBK-CMV (Stratagene, La Jolla, Calif.) for recombinant expression in mammalian cells.
Human embryonic kidney (HEK293) cells are transfected with the pBK-CMV expression construct encoding the full length human capsaicin receptor using standard methods. The transfected cells are selected for two weeks in media containing G418 (400 μg/ml) to obtain a pool of stably transfected cells. Independent clones are isolated from this pool by limiting dilution to obtain clonal stable cell lines for use in subsequent experiments.
Cells transfected with expression plasmids (as described in Example 4) and thereby expressing human capsaicin receptor are seeded and grown to 70-90% confluency in FALCON black-walled, clear-bottomed 96-well plates (#3904, BECTON-DICKINSON, Franklin Lakes, N.J.). The culture medium is emptied from the 96 well plates and FLUO-3 AM calcium sensitive dye (Molecular Probes, Eugene, Oreg.) is added to each well (dye solution: 1 mg FLUO-3 AM, 440 μL DMSO and 440 μl 20% pluronic acid in DMSO, diluted 1:250 in Krebs-Ringer HEPES (KRH) buffer (25 mM HEPES, 5 mM KCl, 0.96 mM NaH2PO4, 1 mM MgSO4, 2 mM CaCl2, 5 mM glucose, 1 mM probenecid, pH 7.4), 50 μl diluted solution per well). Plates are covered with aluminum foil and incubated at 37° C. for 1-2 h in an environment containing 5% CO2. After the incubation, the dye is emptied from the plates, and the cells are washed once with KRH buffer, and resuspended in KRH buffer.
To measure the ability of a test compound to agonize or antagonize a calcium mobilization response in cells expressing capsaicin receptors to capsaicin or other vanilloid agonist, the EC50 of the agonist capsaicin is first determined. An additional 20 μl of KRH buffer and 1 μl DMSO is added to each well of cells, prepared as described above. 100 μl capsaicin in KRH buffer is automatically transferred by the FLIPR instrument to each well. Capsaicin-induced calcium mobilization is monitored using either FLUOROSKAN ASCENT (Labsystems; Franklin, Mass.) or FLIPR (fluorometric imaging plate reader system; Molecular Devices, Sunnyvale, Calif.) instruments. Data obtained between 30 and 60 seconds after agonist application are used to generate an 8-point concentration response curve, with final capsaicin concentrations of 1 nM to 3 μM. KALEIDAGRAPH software (Synergy Software, Reading, Pa.) is used to fit the data to the equation: y=a*(1/(1+(b/x)^c)) to determine the 50% excitatory concentration (EC50) for the response. In this equation, y is the maximum fluorescence signal, x is the concentration of the agonist or antagonist (in this case, capsaicin), a is the Emax, b corresponds to the EC50 value and c is the Hill coefficient. Determination of Agonist Activity
Test compounds are dissolved in DMSO, diluted in 20 μl KRH buffer so that the final concentration of test compounds in the assay well is between 1 μM and 5 μM, and added to cells prepared as described above. The 96 well plates containing prepared cells and test compounds are incubated in the dark, at room temperature for 0.5 to 6 h. It is important that the incubation not continue beyond 6 h. Just prior to determining the fluorescence response, 100 μl capsaicin in KRH buffer at twice the EC50 concentration determined as described above is automatically added by the FLIPR instrument to each well of the 96 well plate for a final sample volume of 200 μl and a final capsaicin concentration equal to the EC50. The final concentration of test compounds in the assay wells is between 1 μM and 5 μM. […] The concentration of antagonist required to provide a 50% decrease, relative to the response observed in the presence of capsaicin and without antagonist, is the IC50 for the antagonist, and is preferably below 1 micromolar, 100 nanomolar, 10 nanomolar or 1 nanomolar.
(In general: Calcium assays in cells follow changes in intracellular calcium, usually with a dye or a luminescent sensor.)

pIC50: −log10 of the molar value.

In general, pIC50 refers to the IC50 on a negative log10 scale, so that one unit is a factor of ten.

T1 sequence (Q8NER1 whole entry): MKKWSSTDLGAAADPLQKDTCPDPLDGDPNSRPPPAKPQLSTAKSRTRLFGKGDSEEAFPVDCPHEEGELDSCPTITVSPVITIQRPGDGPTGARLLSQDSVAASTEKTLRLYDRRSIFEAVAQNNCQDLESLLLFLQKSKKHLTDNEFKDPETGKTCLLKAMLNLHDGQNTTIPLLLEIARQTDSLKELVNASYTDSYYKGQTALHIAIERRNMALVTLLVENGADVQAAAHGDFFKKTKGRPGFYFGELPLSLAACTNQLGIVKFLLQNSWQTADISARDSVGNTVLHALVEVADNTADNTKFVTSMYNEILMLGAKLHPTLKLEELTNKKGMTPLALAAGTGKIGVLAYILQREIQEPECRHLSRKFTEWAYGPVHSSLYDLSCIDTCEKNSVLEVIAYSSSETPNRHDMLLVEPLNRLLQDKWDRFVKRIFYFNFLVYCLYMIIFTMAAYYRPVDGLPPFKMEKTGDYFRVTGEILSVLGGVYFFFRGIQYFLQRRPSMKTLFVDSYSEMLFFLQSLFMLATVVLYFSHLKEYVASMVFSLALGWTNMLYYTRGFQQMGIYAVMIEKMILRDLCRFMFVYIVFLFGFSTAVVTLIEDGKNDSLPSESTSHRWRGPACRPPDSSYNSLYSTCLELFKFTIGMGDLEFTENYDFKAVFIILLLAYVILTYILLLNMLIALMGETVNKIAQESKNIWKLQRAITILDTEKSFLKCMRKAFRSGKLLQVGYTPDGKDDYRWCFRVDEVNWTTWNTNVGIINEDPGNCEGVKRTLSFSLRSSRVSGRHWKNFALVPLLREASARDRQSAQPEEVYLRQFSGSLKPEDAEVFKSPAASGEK

For the compound `Cc1cc(C(=O)NCc2ccc(F)cc2)cnc1N1CCN(c2cc(-c3ccc(F)cc3)nc(N3CCCC3C)n2)CC1` (stereo not drawn) [Example 114, N-(4-fluorobenzyl)-6-{4-[6-(4-fluorophenyl)-2-(2-methylpyrrolidin-1-yl)pyrimidin-4-yl]piperazin-1-yl}-5-methylnicotinamide], the pIC50 is at least 6.00.
As for `Cc1cc(C(=O)N2CCOCC2)cnc1N1CCN(c2cc(-c3ccc(F)cc3)nc(N3CCCC3C)n2)CC1` (stereo not drawn) [Example 124, 4-[(6-{4-[6-(4-fluorophenyl)-2-(2-methylpyrrolidin-1-yl)pyrimidin-4-yl]piperazin-1-yl}-5-methylpyridin-3-yl)carbonyl]morpholine], the figure is at least 6.00; as for `CC1CCCN1c1nc(-c2ccc(F)c(Cl)c2)cc(N2CCN(c3ncc(C(N)=O)cc3Cl)CC2)n1` (stereo not drawn) [Example 15, 5-Chloro-6-{4-[6-(3-chloro-4-fluoro-phenyl)-2-(2-methyl-pyrrolidin-1-yl)-pyrimidin-4-yl]-piperazin-l-yl}-nicotinamide], at least 6.00.
As for `Cc1cc(C(=O)O)cnc1N1CCN(c2cc(-c3ccc(F)c(Cl)c3)nc(N3CCC[C@H]3C)n2)[C@H](C)C1` [Example 154, 6-{4-[6-(3-Chloro-4-fluoro-phenyl)-2-(2-(R)-methyl-pyrrolidin-1-yl)-pyrimidin-4-yl]-3-(R)-methyl-piperazin-1-yl}-5-methyl-nicotinic acid], the figure is at least 6.00; as for `CC(=O)N1CCN(C(=O)c2cnc(N3CCN(c4cc(-c5ccc(F)cc5)nc(N5CCCC5C)n4)CC3)c(C)c2)CC1` (stereo not drawn) [Example 134, 4-(4-{5-[(4-acetylpiperazin-1-yl)carbonyl]-3-methylpyridin-2-yl}piperazin-1-yl)-6-(4-fluorophenyl)-2-(2-methylpyrrolidin-1-yl)pyrimidine], at least 6.00.
As for `Cc1cc(C(N)=O)cnc1N1CCN(c2cc(-c3ccccc3)nc(N3CCCC3C)n2)CC1` (stereo not drawn) [Example 87, 5-Methyl-6-{4-[2-(2-methyl-pyrrolidin-1-yl)-6-phenyl-pyrimidin-4-yl]-piperazin-1-yl}-nicotinamide], the figure is at least 6.00.
As for `Cc1cc(C(N)=O)cnc1N1CCN(c2cc(-c3ccc(F)cc3)nc(N(C)C)n2)[C@H](C)C1` [Example 83, 6-{4-[2-Dimethylamino-6-(4-fluoro-phenyl)-pyrimidin-4-yl]-3-(R)-mcthyl-piperazin-1-yl}-5-methyl-nicotinamide], the pIC50 is at least 6.00.
As for `Cc1cc(C(=O)NCC(F)(F)F)cnc1N1CCN(c2cc(-c3ccc(F)cc3)nc(N3CCCC3C)n2)CC1` (stereo not drawn) [Example 120, 6-{4-[6-(4-fluorophenyl)-2-(2-methylpyrrolidin-1-yl)pyrimidin-4-yl]piperazin-1-yl}-5-methyl-N-(2,2,2-trifluoroethyl)nicotinamide], the figure is at least 6.00.
As for `Cc1cc(C(=O)N(C)Cc2ccccc2)cnc1N1CCN(c2cc(-c3ccc(F)cc3)nc(N3CCCC3C)n2)CC1` (stereo not drawn) [Example 121, N-benzyl-6-{4-[6-(4-fluorophenyl)-2-(2-methylpyrrolidin-1-yl)pyrimidin-4-yl]piperazin-1-yl}-N,5-dimethylnicotinamide], the figure is at least 6.00; as for `CCOC(=O)c1cnc(N2CCN(c3cc(-c4ccc(F)c(Cl)c4)nc(N4CCCC4C)n3)[C@H](C)C2)c(Cl)c1` (stereo partly drawn) [Example 18, 5-Chloro-6-{4-[6-(3-chloro-4-fluoro-phenyl)-2-(2-methyl-pyrrolidin-l-yl)-pyrimidin-4-yl]-3-(R)-methyl-piperazin-1-yl}-nicotinic acid ethyl ester], at least 6.00.
Turning to `CC1CCCN1c1nc(-c2cncc(Cl)c2)cc(N2CCN(c3ncc(C(=O)O)cc3Cl)C[C@H]2C)n1` (stereo partly drawn) [Example 52, 5-Chloro-6-{4-[6-(5-chloro-pyridin-3-yl)-2-(2-methyl-pyrrolidin-1-yl)-pyrimidin-4-yl]-3-(R)-methyl-piperazin-1-yl}-nicotinic acid], the pIC50 was at least 6.00.
For `Cc1cc(-c2cc(N3CCN(c4ncc(C(=O)O)cc4C)C[C@H]3C)cc(N3CCC[C@H]3C)n2)ccc1F` [Example 176, 6-{4-[2-(4-Fluoro-3-methyl-phenyl)-6-(2-(R)-methyl-pyrrolidin-1-yl)-pyridin-4-yl]-3-(R)-methyl-piperazin-1-yl}-5-methyl-nicotinic acid], the pIC50 was at least 6.00.
Under `CNCCc1cnc(N2CCN(c3cc(-c4ccc(F)c(Cl)c4)nc(N4CCC[C@H]4C)n3)[C@H](C)C2)c(Cl)c1` [Example 187, 2-[5-chloro-6-((3R)-4-{6-(3-chloro-4-fluorophenyl)-2-[(2R)-2-methylpyrrolidin-1-yl]pyrimidin-4-yl}-3-methylpiperazin-1-yl)pyridin-3-yl]-N-methylethanamine] stands at least 6.00.
As for `CC(O)c1cnc(N2CCN(c3cc(-c4ccc(F)cc4)nc(N4CCCC4C)n3)CC2)c(Cl)c1` (stereo not drawn) [Example 148, l-(5-Chloro-6-{4-[6-(4-fluoro-phenyl)-2-(2-methyl-pyrrolidin-1-yl)-pyrimidin-4-yl]-piperazin-1-yl}-pyridin-3-yl)-ethanol], the figure is at least 6.00; as for `C[C@@H]1CN(c2ncc(CO)cc2Cl)CCN1c1cc(-c2ccc(F)c(Cl)c2)nc(N2CCCCC2)n1` [Example 173, (5-Chloro-6-{4-[6-(3-chloro-4-fluoro-phenyl)-2-piperidin-1-yl-pyrimidin-4-yl]-3-(R)-methyl-piperazin-1-yl}-pyridin-3-yl)-methanol], at least 6.00.
Under `C[C@@H]1CCCN1c1nc(-c2ccc(F)cc2)cc(N2CCN(c3ncc(C(=O)O)cc3C(F)(F)F)CC2)n1` [Example 177, 6-{4-[6-(4-Fluoro-phenyl)-2-(2-(R)-methyl-pyrrolidin-1-yl)-pyrimidin-4-yl]-piperazin-1-yl}-5-trifluoromethyl-nicotinic acid] stands at least 6.00.
Turning to `C[C@@H]1CN(c2ncc(C(N)=O)cc2Cl)CCN1c1cc(-c2ccc(F)c(Cl)c2)ncn1` [Example 86, 5-Chloro-6-{4-[6-(3-chloro-4-fluoro-phenyl)-pyrimidin-4-yl]-3-(R)-methyl-piperazin-1-yl}-nicotinamide], the pIC50 was at least 6.00.
As for `CNCc1cnc(N2CCN(c3cc(-c4ccc(F)c(Cl)c4)nc(N4CCCC4C)n3)CC2)c(Cl)c1` (stereo not drawn) [Example 11, (5-Chloro-6-{4-[6-(3-chloro-4-fluoro-phenyl)-2-(2-methyl-pyrrolidin-1-yl)-pyrimidin-4-yl]-piperazin-1-yl}-pyridin-3-ylmethyl)-methyl-amine], the figure is at least 6.00; as for `Cc1cc(C(=O)NC2CC2)cnc1N1CCN(c2cc(-c3ccc(F)cc3)nc(N3CCCC3C)n2)CC1` (stereo not drawn) [Example 106, N-Cyclopropyl-6-{4-[6-(4-fluoro-phenyl)-2-(2-methyl-pyrrolidin-1-yl)-pyrimidin-4-yl]-piperazin-1-yl}-5-methyl-nicotinamide], at least 6.00.
As for `C[C@@H]1CN(c2ncc(CC#N)cc2Cl)CCN1c1cc(-c2ccc(F)cc2)nc(N2CCC[C@H]2C)n1` [Example 100, (5-Chloro-6-{4-[6-(4-fluoro-phenyl)-2-(2-(R)-methyl-pyrrolidin-1-yl)-pyrimidin-4-yl]-3-(R)-methyl-piperazin-1-yl}-pyridin-3-yl)-acetonitrile], the figure is at least 6.00.
As for `CC1CCCN1c1nc(-c2ccc(F)cc2)cc(N2CCN(c3ncc(C(=O)O)cc3Cl)CC2)n1` (stereo not drawn) [Example 25, 5-Chloro-6-{4-[6-(4-fluoro-phenyl)-2-(2-methyl-pyrrolidin-1-yl)-pyrimidin-4-yl]-piperazin-1-yl}-nicotinic acid], the figure is at least 6.00.
